In article PMC13538172, “Zonisamide nanodiamonds for brain targeting: A comprehensive study utilising in silico, in vitro, in vivo, and molecular investigation for successful nose-to-brain delivery for epilepsy management” (Drug Delivery and Translational Research, 2025):

Test system: brain hippocampus
Assay: Histopathological examination of the brain hippocampus in TLE rats
Format: in vivo
Settings: H&E, Fig. 12
Method: Temporal lobe epilepsy (TLE) was induced in rats using the pilocarpine model according to the method of […] et al.. Prior to the experiment, rats were housed in plastic cages at October University for Modern Science and Arts under controlled environmental conditions (temperatures of 25°±3°C and 50% humidity) with free access to water and softened standard pellet chow. The rats were injected with pilocarpine (300 mg/kg; i.p.) to induce status epilepticus (SE). Atropine (1 mg/kg; i.p.) was injected 30 minutes before pilocarpine injection to antagonize the peripheral muscarinic activity. SE was defined using the modified Racine scale by observing seizure severity categorized as stages 4 and 5. […] The SE seizures were left to last for 3 hours to induce hippocampus damage, after which diazepam (10 mg/kg; i.p.) was injected to attenuate the seizures. Lubricant ophthalmic gel was applied with a cotton swab to each eye to prevent the corneas from drying out during the seizures. The rats were hydrated with sterile Ringer's lactate injections (1 mL, i.p.) for 3 days post-SE induction. Animal welfare assessments were conducted multiple times per day for several days after the induction of SE. […]

## NS(=O)(=O)Cc1noc2ccccc12 [ZNS, Zonisamide]
  hippocampal histopathology, result in words: noticeable neuroprotective efficacy
